Consider three compounds from US4447434A, “Substituted dibenzodiazepinones” (Dr. Karl Thomae GmbH, priority 1982, dated 1984).

The target of data set [1] is muscarinic receptors (cerebral cortex). The data set can be described thus: Binding to muscarinic receptors, cerebral cortex (displacement of 3H-N-methylscopolamine). Also noted: species or system rat (male Sprague-Dawley). The note with it: cerebral cortex homogenate 1:3000; 0.3 n molar 3H-NMS; 30° C, 45 min, pH 7.4; read-out: Receptor binding tests IC50, Cortex. The method, then: (§1) 2. Studies of binding to muscarinic receptors: Determination of the IC50 value
(§2) The organ donors were male Sprague-Dawley rats with a body weight of from 180 to 220 g. After the heart, stomach and cerebral cortex had been removed, the remainder of the operation was carried out in ice-cold Hepes-HCl buffer (pH 7.4; 100 m molar NaCl, 10 m molar MgCl2). The smooth muscle of the fundus of the stomach was separated from the mucous membrane of the stomach and subjected to preliminary homogenization. The whole heart was cut up with scissors. All the organs were then homogenized in a Potter apparatus.
(§3) For the binding test, the homogenized organs were diluted as follows:
(§4) The homogenized organ preparations were incubated at a specific concentration of the radiolabelled compound and with a series of concentrations of the nonradioactive test substances in an Eppendorf centrifuge tube at 30° C. The duration of incubation was 45 minutes. 0.3 n molar ^3 H-N-methylscopolamine (^3 H-NMS) was used as the radiolabelled compound. After incubation had been brought to an end by centrifuging at 14000 g, the radioactivity in the pellet was determined. It represents the sum of the specific and nonspecific binding of ^3 H-NMS. The proportion of nonspecific binding was defined as the radioactivity which was bound in the presence of 1μ molar quinuclidinylbenzylate. Four measurements were taken in each case. The IC50 values of the non-labelled test substances were determined graphically. They represent the concentration of test substance at which the specific binding of ^3 H-NMS to the muscarinic receptors in the various organs was inhibited by 50%.
On the technique in general: In a radioligand displacement assay an active substance lowers the binding of a labelled ligand.

Data set [2] addresses muscarinic receptors (smooth muscle fundus of stomach). The data set can be described thus: Binding to muscarinic receptors, smooth muscle of the fundus of the stomach (displacement of 3H-N-methylscopolamine). Set-up: species or system rat (male Sprague-Dawley). The note with it: smooth muscle of fundus homogenate 1:100; 0.3 n molar 3H-NMS; 30° C, 45 min, pH 7.4; read-out: Receptor binding tests IC50, Smooth muscle fundus of stomach. The method, then:
as §1, §2, §3
Smooth muscle of the fundus of the stomach: 1:100
as §4

The target in data set [3] is T1, muscarinic receptors (heart) (Rattus norvegicus, UniProt P10980).
T1 construct: The whole heart was cut up with scissors; from tissue; host or cells: whole heart of male Sprague-Dawley rats, homogenate
T1 sequence (P10980 1-466): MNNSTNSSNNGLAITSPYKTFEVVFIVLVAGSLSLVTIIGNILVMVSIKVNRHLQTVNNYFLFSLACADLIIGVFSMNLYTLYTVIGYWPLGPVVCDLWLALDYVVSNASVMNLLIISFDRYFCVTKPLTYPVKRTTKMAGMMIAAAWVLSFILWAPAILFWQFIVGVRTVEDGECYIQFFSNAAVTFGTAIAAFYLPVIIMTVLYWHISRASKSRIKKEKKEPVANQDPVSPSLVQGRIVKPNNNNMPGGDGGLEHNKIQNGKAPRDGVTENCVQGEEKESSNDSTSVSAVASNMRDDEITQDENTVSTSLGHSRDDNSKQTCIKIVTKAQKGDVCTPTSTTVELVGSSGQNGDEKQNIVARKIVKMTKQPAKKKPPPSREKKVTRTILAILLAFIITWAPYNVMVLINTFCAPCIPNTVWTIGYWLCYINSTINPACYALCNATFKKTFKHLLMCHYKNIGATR
In words: Binding to muscarinic receptors, whole heart (displacement of 3H-N-methylscopolamine). Also noted: species or system rat (male Sprague-Dawley). Here is the method:
as §1, §2, §3, §4

In data set [4] the test system is oxotremorine-induced lesions in the mucous membrane of the stomach. In words: Oxotremorine test: antiulcerative effect (protection against lesions of the mucous membrane of the stomach). It counts as in vivo, rat (female albino, Crl:COBS-CD (SD) BR). The following applies: Rattus norvegicus, iv; for ED50: read-out: Oxotremorine Test, Antiulcerative effect ED50; for ED70: read-out: Oxotremorine Test, Antiulcerative effect ED70. Here is the method:
(§5) Oxotremorine, a specific agonist for muscarinic receptors, produces lesions in the mucous membrane of the stomach in rats and increases their secretion of saliva. This test method was chosen so that any selective activity of an antimuscarinic substance on the stomach could be identified.
(§6) 10 female albino rats (of the Crl:COBS-CD (SD) BR strain) with a body weight of from 120 to 150 g were used in each treatment group and were kept without food for 24 hours before the start of the test but given free access to drinking water.
(§7) In order to determine, in preliminary tests, the muscarinic effect of oxotremorine on each of the symptoms studied, a dosage/activity curve was drawn up with at least three dosages for each symptom.
(§8) When testing the antimuscarinic substances, the dosage of oxotremorine which triggered the symptom in question in 90 to 100% of the animals in the preliminary tests was used.
Lesions in mucous membrane of stomach: 0.62 mg/kg i.v.
(§9) Each antimuscarinic substance was administered intravenously in uniformly graduated doses 15 minutes before the oxotremorine was administered. Control groups were given corresponding quantities of the solvent and suspending agent instead of the test substance.
(§10) Immediately after the oxotremorine was administered, the animals were placed in a glass case for 15 minutes and observed.
(§11) The ED50 values were determined using the method described by LITCHFIELD and WILCOXON (J. Pharmacol. Exp. Ther. 96, 99, 1949).
The effects on lesions of the mucous membrane of the stomach were evaluated as follows:
The lesions of the gastric mucous membrane were produced by intravenous injection of 0.62 mg/kg of oxotremorine 30 minutes after the oral administration of 1 mg/kg of neostigmine (a cholinesterase inhibitor). 60 minutes after the administration of the neostigmine, the animals were killed, the stomachs were removed and opened and examined for the presence of any lesions in the mucous membrane. The protective effect of the test substances was expressed as the percentage inhibition (percentage of animals without lesions). The ED50 and ED70 values were determined using the method of LITCHFIELD and WILCOXON (see above).

Data set [5] has as its system oxotremorine-induced secretion of saliva. In words: Oxotremorine test: inhibition of salivation. It is filed as in vivo, rat (female albino, Crl:COBS-CD (SD) BR). The note with it: Rattus norvegicus, iv, 0.25 h, read-out: Oxotremorine Test, Inhibition of salivation ED50. Here is the method:
as §5, §6, §7, §8
Secretion of saliva: 0.083 mg/kg i.v.
as §9, §10, §11

The nature of data set [6]: Mydriasis (effect on the pupil size). The note with it: rat, in vivo, iv; pupil size observed for 10 minutes; double blind. Here is the method:
The effect of the test substances on the pupil size in rats was investigated as follows:
The substances were administered intravenously to groups of 10 animals in at least three uniformly graduated doses. […] The percentage of test animals in which mydriasis occurred was determined. The ED50 values were again determined using the method of LITCHFIELD and WILCOXON (see above).

Setting [7] is: 15 min before oxotremorine 0.62 mg/kg i.v., neostigmine 1 mg/kg oral.
Where [8] appears, read: i.v., 15 min before oxotremorine 0.083 mg/kg i.v., double blind.

Like-named read-outs stand apart in the source and are kept apart here.

With `CN1CC=C(C(=O)N2c3ccccc3NC(=O)c3ccccc32)CC1` [Substance A, 5,10-dihydro-5-[(1-methyl-1,2,5,6-tetrahydro-4-pyridinyl)-carbonyl]-11H-dibenzo[b,e][1,4]diazepin-11-one], the IC50 (usually the midpoint of a concentration-inhibition curve) in data set [1] is 30 nM; in data set [2], 100 nM; in data set [3], 250 nM. The 50% effective dose (ED50) – broadly, the dose at which the effect has come halfway, by size or by number of responders – in data set [4] (setting [7]) came to 0.0031 mg/kg; in data set [5] (setting [8]) it was 0.08 mg/kg. In addition, the ED70 in data set [4] (setting [7]) was found to be 0.0065 mg/kg. Further, the 50% effect level in data set [6] (ED50 at 10 min) was put at a dose of 0.0366 mg/kg.

`CN1CCC(CC(=O)N2c3ccccc3C(=O)Nc3cccc(Cl)c32)CC1` [Substance B, 6-chloro-5,10-dihydro-5-[(1-methyl-4-piperidinyl)acetyl]-11H-dibenzo[b,e][1,4]diazepin-11-one]: the IC50 came to 28 nM in data set [1], 170 nM in data set [2] and 200 nM in data set [3]. Also, the figures for the ED50 in data set [4] (setting [7]) and in data set [5] (setting [8]) were 0.0044 mg/kg and 0.23 mg/kg, respectively. The ED70 in data set [4] (setting [7]) was determined as 0.0084 mg/kg. The ED50 at 10 min in data set [6] is 0.138 mg/kg.

In the case of `CN1[C@@H]2CC[C@H]1C[C@@H](CC(=O)N1c3ccccc3NC(=O)c3ccccc31)C2` [Substance C, endo-5,10-dihydro-5-[(8-methyl-8-azabicyclo[3,2,1]-oct-3-yl)acetyl]-11H-dibenzo[b,e][1,4]diazepin-11-one], the IC50 in data set [1] was 15 nM; in data set [2] it was 200 nM; in data set [3] (whole heart homogenate 1:250, 0.3 n molar 3H-NMS, 30° C, 45 min, pH 7.4, read-out: Receptor binding tests IC50, Heart), 55 nM. Also, the ED50 was found to be 0.0011 mg/kg in data set [4] and 0.105 mg/kg in data set [5]. Also, in data set [4], the ED70 was 0.0038 mg/kg. The same compound came in with an ED50 at 10 min in data set [6] of 0.054 mg/kg.
